# Earlier results as cited in patent US20050147629A1, “Pharmaceutical formulation comprising non-peptide renin inhibitor and surfactant” (priority 2002, published 2005).
# Settings: readily soluble = at least 1 g per 100 ml, poorly soluble = less than 1 g per 100 ml (b7)
compound,measurement,value
COCCCOc1cc(C[C@@H](C[C@H](N)[C@@H](O)C[C@H](C(=O)NCC(C)(C)C(N)=O)C(C)C)C(C)C)ccc1OC [formula Ia],solubility in water,very readily soluble in water
